Structures can show the parent of a compound that is named as a salt. Where two headings read alike, the source gives them in different places.
What was measured:
[1] = target: GST-Syk Full Protein (human) (Homo sapiens, UniProt P43405); assay: Syk kinase inhibition test (HTRF method); type: biochemical
How it was run: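 Human GST-Syk full-length (6.4 nM) phosphorylated biotin-EDPDYEWPSA-NH2 (250 nM) with 100 μM ATP in HEPES pH 7.0/MgCl2 buffer, 2% DMSO, 30 min at room temperature. EDTA stop, then HTRF detection (streptavidin-XL665, Eu anti-phosphotyrosine) after 1 h; 665/620 ratio read.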

[2] = tested on: cultured human mast cells; assay: Degranulation inhibition test using cultured human mast cells (IgE cross-linking, β-Hexosaminidase release); type: cell-based; details: Mast cell, cultured human mast cells, read-out: human degranulation ave. IC50
How it was run: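 CD34+ cord-blood cells cultured ≥8 weeks with SCF/IL-6/IL-3; FcεRI primed 5 days with rhIL-4 (1 ng/mL) and hIgE (0.5 μg/mL). Compound (0.1% DMSO) preincubated 10 min at 37 °C, then anti-IgE (final 10 μg/mL) 30 min; released β-hexosaminidase read at 405 nm versus total lysate, IC50 (M).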

[3] = HTRF, 100 μM ATP, 30 min room temperature, average, read-out: sykHTRF ave IC50
[4] = anti-hIgE stimulation, β-Hexosaminidase index, average
[5] = Tables 1-x, compounds A, read-out: sykHTRF ave IC50
[6] = Tables 2-x, thiophene compounds B, read-out: sykHTRK ave IC50
[7] = Tables 2-x, thiophene compounds B

Compound | IC50 [1, 3] [µM] | IC50 [2, 4] [µM] | IC50 [1, 5] [µM] | IC50 ([2]; Tables 1-x, compounds A) [µM] | further results
Cc1ccnc(Nc2cccc(-c3cnc(CNC4CCN(C(=O)OC(C)(C)C)CC4)s3)n2)c1 [Compound A-386] | – | – | 0.1 to 1 | 0.1 to 1 | –
Cc1ccnc(Nc2cccc(-c3ccc(NC(=O)OC(C)(C)C)s3)n2)c1 [Compound B-34] | – | – | – | – | IC50 [1, 6]: 0.1 to 1 µM; IC50 [2, 7]: > 1 µM
CC1(c2ccnc(Nc3cccc(-c4cnc(N5CCC(CC(=O)O)CC5)s4)n3)c2)OCCO1 [Compound A-572, [1-(5-{6-[4-(2-methyl-[1,3]dioxolan-2-yl)pyridin-2-ylamino]pyridin-2-yl}thiazol-2-yl)piperidin-4-yl]acetic acid dihydrochloride] | – | – | < 0.1 | 0.1 to 1 | –
CC(=O)Nc1cc(C)c(-c2cccc(Nc3cc(C)ccn3)n2)s1 [Compound B-8] | – | – | – | – | IC50 [1, 6]: 0.1 to 1 µM; IC50 [2, 7]: > 1 µM
CC(=O)N[C@@H](C)c1ncc(-c2cccc(Nc3cc(-c4ccncc4)ccn3)n2)s1 [Compound A-79, N—((S)-1-{5-[6-([4,4′]bipyridinyl-2-ylamino)pyridin-2-yl]thiazol-2-yl}ethyl)acetamide] | < 0.1 | 0.1 to 1 | – | – | –
Cc1ccnc(Nc2cccc(-c3cnc(N4CCSCC4)s3)n2)c1 [Compound A-418] | – | – | 0.1 to 1 | 0.1 to 1 | –
CC(=O)Nc1nc([C@H](C)NC(C)=O)sc1-c1cccc(Nc2cc(C)ccn2)n1 [Compound A-119] | > 1 | > 1 | – | – | –
Cc1ccnc(Nc2cccc(-c3cnc(N(C)Cc4ccc(CC(=O)O)cc4)s3)n2)c1 [Compound A-587, {4-[(N-methyl-N-{5-[6-(4-methylpyridin-2-ylamino)pyridin-2-yl]thiazol-2-yl}amino)methyl]phenyl}acetic acid dihydrochloride] | – | – | < 0.1 | 0.1 to 1 | –
CC(=O)NCCCCCc1ncc(-c2cccc(Nc3cc(C)ccn3)n2)s1 [Compound A-129] | 0.1 to 1 | > 1 | – | – | –
Cc1ccnc(Nc2cccc(-c3cnc([C@@H](N)CCC(=O)O)s3)n2)c1 [Compound A-106] | 0.1 to 1 | > 1 | – | – | –
Cc1ccnc(Nc2cccc(-c3cnc(N4CCc5cc(C(=O)O)ccc5C4)s3)n2)c1 [Compound A-607, 2-{5-[6-(4-methylpyridin-2-ylamino)pyridin-2-yl]thiazol-2-yl}-1,2,3,4-tetrahydroisoquinoline-6-carboxylic acid] | – | – | < 0.1 | 0.1 to 1 | –
Cc1ccnc(Nc2cccc(-c3cnc(N4CCC(C)(C(=O)O)CC4)s3)n2)c1 [Compound A-540, 4-methyl-1-{5-[6-(4-methylpyridin-2-ylamino)pyridin-2-yl]thiazol-2-yl}piperidine-4-carboxylic acid] | – | – | < 0.1 | 0.1 to 1 | –
Cc1ccnc(Nc2cccc(-c3cnc([C@H](C)NC(C)C)s3)n2)c1 [Compound A-65] | 0.1 to 1 | 0.1 to 1 | – | – | –
Cc1ccnc(Nc2cccc(-c3cnc(C(=O)N4CCCC(O)C4)s3)n2)c1 (stereo not drawn) [Compound A-61] | 0.1 to 1 | 0.1 to 1 | – | – | –
Cc1ccnc(Nc2cccc(-c3cnc(C(=O)NCCCO)s3)n2)c1 [Compound A-53] | 0.1 to 1 | 0.1 to 1 | – | – | –
CNC(=O)CN(C)C(=O)C1CCN(c2ncc(-c3cccc(Nc4cc(C)ccn4)n3)s2)CC1 [Compound A-469, N-methyl-N-methylcarbamoylmethyl-1-{5-[6-(4-methylpyridin-2-ylamino)pyridin-2-yl]thiazol-2-yl}piperidine-4-carboxamide] | – | – | < 0.1 | 0.1 to 1 | –
CC(=O)N1CCC(N(C)c2ncc(-c3cccc(Nc4cc(Cl)ccn4)n3)s2)CC1 [Compound A-536, 1-[4-(N-{5-[6-(4-chloropyridin-2-ylamino)pyridin-2-yl]thiazol-2-yl}-N-methylamino)piperidin-1-yl]ethanone] | – | – | < 0.1 | 0.1 to 1 | –
Cc1ccnc(Nc2cccc(-c3cnc(C(=O)NC(C)CO)s3)n2)c1 (stereo not drawn) [Compound A-54] | 0.1 to 1 | > 1 | – | – | –
CC(=O)c1ccc(-c2ncc(C)c(Nc3cc(C)ccn3)n2)s1 [Compound B-29] | – | – | – | – | IC50 [1, 6]: 0.1 to 1 µM; IC50 [2, 7]: > 1 µM
Cc1ccnc(Nc2cccc(-c3cnc(N(C)CCNC(=O)CO)s3)n2)c1 [Compound A-509, 2-hydroxy-N-[2-(N′-methyl-{5-[6-(4-methylpyridin-2-ylamino)pyridin-2-yl]thiazol-2-yl}amino)ethyl]acetamide] | – | – | < 0.1 | 0.1 to 1 | –
Cc1ccnc(Nc2cccc(-c3cnc(C(=O)NC(C)(C)CO)s3)n2)c1 [Compound A-34] | 0.1 to 1 | > 1 | – | – | –
Cc1ccnc(Nc2cccc(-c3cnc(C(C)(C)NC(=O)OC(C)(C)C)s3)n2)c1 [Compound A-112] | > 1 | > 1 | – | – | –
Cc1ccnc(Nc2cccc(-c3cnc(CNC(=O)CC(=O)O)s3)n2)c1 [Compound A-169] | 0.1 to 1 | > 1 | – | – | –
CC(=O)OCC(=O)N[C@@H](C)c1ncc(-c2cccc(Nc3cc(C)ccn3)n2)s1 [Compound A-146] | 0.1 to 1 | 0.1 to 1 | – | – | –

Now from value to molecule, other results behind:

IC50 [1, 3] [µM] | IC50 [2, 4] [µM] | IC50 [1, 5] [µM] | IC50 ([2]; Tables 1-x, compounds A) [µM] | Compound | further results
0.1 to 1 | 0.1 to 1 | – | – | Cc1ccnc(Nc2cccc(-c3cnc([C@H]4CC[C@H](C(=O)N(CCO)CCO)CC4)s3)n2)c1 [Compound A-302] | –
– | – | 0.1 to 1 | > 1 | Cc1ccnc(Nc2cccc(-c3cnc(N4CCC(C(=O)N(C)C)CC4)s3)n2)c1 [Compound A-434] | –
< 0.1 | > 1 | – | – | Cc1ccnc(Nc2cccc(-c3cnc([C@H]4CC[C@H](C(=O)O)CC4)s3)n2)c1 [Compound A-7, trans-4-{5-[6-(4-methylpyridin-2-ylamino)pyridin-2-yl]thiazol-2-yl}cyclohexanecarboxylic acid] | –
0.1 to 1 | > 1 | – | – | Cc1ccnc(Nc2cccc(-c3cnc(C4CCN(C(=O)C5CCNCC5)CC4)s3)n2)c1 [Compound A-292] | –
– | – | 0.1 to 1 | > 1 | Cc1ccnc(Nc2cccc(-c3cnc(N(CC(=O)N(C)C)C[C@H]4CC[C@H](C(=O)O)CC4)s3)n2)c1 [Compound A-601] | –
0.1 to 1 | > 1 | – | – | Cc1ccnc(Nc2cccc(-c3cnc([C@H]4CC[C@H](C(=O)NC5(CO)CCCC5)CC4)s3)n2)c1 [Compound A-310] | –
0.1 to 1 | 0.1 to 1 | – | – | Cc1ccnc(Nc2cccc(-c3cnc([C@H]4CC[C@H](C(=O)NCCc5ccccn5)CC4)s3)n2)c1 [Compound A-279] | –
0.1 to 1 | 0.1 to 1 | – | – | Cc1ccnc(Nc2cccc(-c3cnc(C4CCN(CCO)CC4)s3)n2)c1 [Compound A-189] | –
< 0.1 | > 1 | – | – | Cc1ccnc(Nc2cccc(-c3cnc([C@H]4CC[C@H](C(=O)N5CCNCC5)CC4)s3)n2)c1 [Compound A-176, (trans-4-{5-[6-(4-methylpyridin-2-ylamino)pyridin-2-yl]thiazol-2-yl}cyclohexyl)-(piperazin-1-yl)methanone] | –
0.1 to 1 | > 1 | – | – | Cc1ccnc(Nc2cccc(-c3cnc(COCC(=O)N4C[C@@H](O)[C@@H](O)C4)s3)n2)c1 [Compound A-374] | –
0.1 to 1 | 0.1 to 1 | – | – | Cc1ccnc(Nc2cccc(-c3cnc(C4CCN(C(=O)N5CCC(O)CC5)CC4)s3)n2)c1 [Compound A-251] | –
0.1 to 1 | 0.1 to 1 | – | – | COC(=O)[C@H]1CC[C@H](c2ncc(-c3cccc(Nc4cc(Cl)ccn4)n3)s2)CC1 [Compound A-203] | –
